For one assay, the system named is STAT3. Description: Western blotting of STAT3 phosphorylation in treated brain cancer cells. Format: cell-based. The settings on record: Daoy, IMR32, KNS42; 0, 10, 15 and 20 µM, 48 hours. On the procedure: (§1) Moxidectin inhibits JAK-STAT signaling. In order to delineate the mechanism by which moxidectin mediates its anti-cancer effects in brain cancer cell lines, Daoy, IMR32, and KNS42 cells were treated with 0, 10, 15 and 20 µM moxidectin for 48 hours and evaluated by western blotting. […] It has been reported that, upon activation (phosphorylation) JAK2 activates multiple downstream transcription factors one of which is STAT3. Hyper activation of STAT3 in cancer cells is strongly attributed to evasion of apoptosis and transcriptional activation of anti-apoptotic proteins such as Bcl-2 and c-myc.
(§2) It has been reported that, upon activation (phosphorylation) JAK2 activates multiple downstream transcription factors one of which is STAT3. Hyperactivation of STAT3 in cancer cells is strongly attributed to evasion of apoptosis and transcriptional activation of anti-apoptotic proteins such as Bcl-2 and c-myc.
A general note: Immunoblotting shows a protein as a band on a membrane.

Assay [1] has as its system Daoy, UW228, ONS76, UW426, PFSK1 and IMR32 brain cancer cells. Description: Annexin V/FITC apoptosis assay (FIGS. 6A-6F). In kind it is cell-based. On the procedure:
(§3) The mode of cell death caused by moxidectin treatment was determined by Annexin V/FITC assay in Daoy, UW228, ONS76, UW426, PFSK1 and IMR32 brain cancer cells (FIGS. 6A-6F, resepectively). […] 15 µM moxidectin induced -80% apoptosis in Daoy and IMR32 brain cancer cell lines. The percentage of apoptotic cells with 20 µM moxidectin treatment ranged from 90-100% in all the brain cancer cell lines. Induction of apoptosis by moxidectin treatment in these cell lines was further assessed by increase in the cleavage of caspase 3 and PARP (FIG. 3).
as §3, with “FIGS. 6A-6F show the induction of apoptosis by moxidectin. The mode” for “The mode”, “PARP (FIG. 7).” for “PARP (FIG. 3).”

Another assay has as its system Janus Kinase 2 (JAK2). Description: Western blotting of JAK2 in treated brain cancer cells. Format: cell-based. The settings on record: Daoy, IMR32, KNS42, 0, 10, 15 and 20 µM, 48 hours. As for the experimental part: Daoy, IMR32, and KNS42 cells were treated with 0, 10, 15 and 20 µM moxidectin for 48 hours and evaluated by western blotting.
as §1, §2

Assay [2] deals with Daoy, KNS42 and IMR32 brain cancer cells. Description: Annexin V/FITC apoptosis assay (FIGS. 2A-2C). Format: cell-based. On the procedure:
The percentage of apoptotic cells with 20 µM moxidectin treatment ranged from 90-100% in all the brain cancer cell lines tested (FIGS. 2A-2C).
Induction of apoptosis by moxidectin. The mode of cell death caused by moxidectin treatment was determined by Annexin V/FITC assay in Daoy, KNS42 and IMR32 brain cancer cells. […] 15 µM moxidectin induced -80% apoptosis in Daoy, KNS42 and IMR32 brain cancer cell lines. The percentage of apoptotic cells with 20 µM moxidectin treatment ranged from 90-100% in all the brain cancer cell lines tested (FIGS. 2A-2C). Induction of apoptosis by moxidectin treatment in these cell lines was further assessed by increase in the cleavage of caspase 3 and PARP (FIG. 3).

Assay [3] has as its system Daoy (medulloblastoma), IMR32 (neuroblastoma) and KNS42 (glioblastoma) cells. Description: Proliferation / survival of brain cancer cells (FIGS. 1A-1C). Format: cell-based. An excerpt:
Moxidectin treatment suppresses the proliferation of brain cancer cells.

Assay [4] relates to Daoy cells (medulloblastoma). Description: Subcutaneously implanted Daoy tumor growth in mice. In kind it is in vivo. The settings on record: subcutaneous Daoy. As for the experimental part: (§4) Moxidectin suppresses the growth of subcutaneously implanted brain cancer cells. To evaluate the ability of moxidectin in inhibiting the growth of brain tumor cells in vivo, ~ 4 million Daoy cells were injected subcutaneously into the right flank of the mice. Once the tumor cells started growing and the tumor volume reached ~ 70 mm^3, mice were randomized into four groups. Control group received the vehicle whereas the treatment group received 2.5 mg/kg, 5 mg/kg and 10 mg/kg moxidectin once every day. The tumor readings were taken twice a week throughout the course of the experiment using Vernier caliper. […] Similarly, 2.5 mg/kg and 5 mg/kg moxidectin suppressed Daoy tumor growth by 45% and 60% respectively (FIG. 4B).
as §4, with “4C). […] In another experiment, ~0.3 million Daoy luc cells were injected intracranially in the brain of athymic nude mice. The mice were given 2.5 mg/kg for 33 days. Moxidectin was able to inhibit -65% of intracranially implanted medulloblastoma tumors. […] Additionally, ~ 3 million SK-N-AS neuroblastoma cells were injected subcutaneously in the right flank of the mice. Mice were randomized on day 10. Treatment group received 3.5 mg/kg moxidectin. The experiment was terminated on day 23. Moxidectin was able to inhibit 60% of subcutaneously implanted neuroblastoma tumors (FIG. 4D).” for “4B).”

Assay [5] deals with Daoy luc cells (medulloblastoma). Description: Intracranially implanted Daoy luc tumors in mice. Format: in vivo, athymic nude mice. The settings on record: 2.5 mg/kg for 33 days; intracranial Daoy luc.
The test system of a further assay is caspase 3 and PARP. Description: Western blotting of caspase 3 and PARP cleavage in treated brain cancer cells. Format: cell-based. The settings on record: Daoy, IMR32 and KNS42; 48 hours. On the procedure:
as §1
(§5) Moreover, moxidectin increased the cleavage of caspase 3 and PARP as an indication of apoptosis, a primary mode of cell death (FIG. 3).
(§6) Moreover, moxidectin increased the cleavage of caspase 3 and PARP as an indication of apoptosis, a primary mode of cell death (FIG. 7).

In another assay the test system is Bcl-2. Description: Western blotting of Bcl-2 expression in treated brain cancer cells. In kind it is cell-based. The settings on record: Daoy, IMR32 and KNS42; 48 hours. On the procedure:
as §1, §5, §6

The subject of assay [6] is Daoy, UW228, ONS76, UW246, PFSK1 (medulloblastoma), IMR32, SF268, SF295 (glioblastoma), SK-N-AS (neuroblastoma) cells. Description: Proliferation / survival of brain cancer cell line panel (FIGS. 5A-5I). In kind it is cell-based.
In assay [7] the test system is SK-N-AS neuroblastoma cells. Description: Subcutaneously implanted SK-N-AS neuroblastoma tumors in mice. The settings on record: 3.5 mg/kg; randomized day 10, terminated day 23. Format: in vivo.
[8] abbreviates: treatment for 48 hours, all brain cancer cells.
[9] abbreviates: varying concentrations, concentration and time-dependent.

Broadly, the IC50 is the midpoint of a concentration-inhibition curve. Read a low IC50 as greater potency in that assay.

Each structure is given as a SMILES string.

With `CO/N=C1\C[C@]2(C[C@@H]3C[C@@H](C/C=C(\C)C[C@@H](C)/C=C/C=C4\CO[C@@H]5[C@H](O)C(C)=C[C@@H](C(=O)O3)[C@]45O)O2)O[C@H](/C(C)=C/C(C)C)[C@H]1C` [Moxidectin], in the assay with STAT3, the “phosphorylation of STAT3 at Tyr705” value is recorded as “reduced”. The apoptotic effects entry in assay [1] (10 µM, 48 hours, all cell lines tested) was “minimal apoptotic effects”; in assay [2] (10 µM, 48 hours, all three cell lines), “minimal apoptotic effects”. In addition, the apoptosis induced came out at 80% in assay [1] (15 µM, 48 hours, Daoy and IMR32); 80% in assay [2] (15 µM, 48 hours, Daoy, KNS42 and IMR32). In addition, the “percentage of apoptotic cells” value was 90-100% in assay [1] (20 µM, 48 hours, all cell lines) and 90-100% in [2] (20 µM, 48 hours, all cell lines tested). Besides, the apoptosis entry in assay [1] (setting [8]) and in [2] (setting [8]) was “significant increase” throughout. Further, the “protein level of JAK2” value with Janus Kinase 2 (JAK2) is listed as “remained unchanged”. The “phosphorylation of JAK2 at Tyr1007/1008” value in the assay on Janus Kinase 2 (JAK2) (concentration-dependent) is given as “reduced”. Moreover, the concentration for half-maximal inhibition (IC50) lay in the range of 11 to 16 µM in [3] (Daoy, IMR32 and KNS42, 24, 48 and 72-hour time point); 9.7 to 30 µM in assay [6] (all brain cancer cell lines, 24, 48 and 72-hour time point). Further, the survival of cells entry in [3] (setting [9]) and in [6] (setting [9]) was “significant reduction” throughout. Further, the results for the “suppression of tumor growth” value in assay [4] (2.5 mg/kg once every day), in assay [4] (5 mg/kg once every day) and in [4] (10 mg/kg once every day) were 45%, 60% and 90%, respectively. Besides, the inhibition of intracranially implanted tumors in [5] is 65%. In addition, the “cleavage of caspase 3 and PARP” value in the assay with caspase 3 and PARP was “increased”. The “expression of anti-apoptotic protein Bcl-2” value with Bcl-2 is on record as “reduced”. The “inhibition of subcutaneously implanted neuroblastoma tumors” value in [7] stood at 60%.

The record behind these values is patent US20230038646A1, “NOVEL AND POTENT JAK/STAT INHIBITOR” (Texas Tech University System, priority 2020, published 2023).
